Assay results published in publication PMC8942850, “Boron clusters as broadband membrane carriers” (Nature, 2022).

How the values were obtained:
[1] = HPTS/DPX transport assay in zwitterionic EYPC vesicles; format: in vitro ADME; settings: for Y Conventional / Y Reverse: Extended Data Fig. 4d; for Ymax (%) maximal activity, carrier activity: 13 µM lipid, 10 mM Tris, 107 mM NaCl, HPTS fluorescence
Method: The well-established HPTS/DPX assay, which uses 8-hydroxypyrene-1,3,6-trisulfonate (HPTS) and p-xylene-bis-pyridinium (DPX), was implemented to monitor peptide-transport activation (Fig. 2a). […] A surfactant (Triton X-100) was added at the end of the experiment (t = 600 s) to release all vesicle content and normalize the fluorescence intensity data.
Fig. 2 Carrier activity obtained from the HPTS/DPX assay. a, Schematic representation of the transport of otherwise impermeable analytes facilitated by superchaotropic cluster anions with encapsulated HPTS/DPX probe/quencher pair used for signalling. […] Concentrations of carrier and cargo, when fixed, were 40 and 20 µM, respectively, unless explicitly stated. Source data
A thin lipid film was prepared by evaporating a lipid solution with a stream of nitrogen and then dried in vacuo overnight.
Fluorescence intensities were normalized to fractional emission as I(t) = (It − I0)/(I∞ − I0), where I0 = It before cluster addition and I∞ = It after lysis.
In the activator measurements, in which different activators were tested with the same cargo, the activator efficiency (Ea) is determined from their ability to activate the transport of an impermeable cargo molecule and is characterized by Ymax, its maximal activity, and EC50, the effective activator concentration. A potent activator reaches high Ymax at low EC50. To reflect both factors, the activator efficiency is defined as Ea = Ymax × (pEC50/fa), where pEC50 is the negative logarithm of EC50.
In the transport measurements, in which different types of cargo were tested with the same activator, the transport efficiency (Et) reports on the sensitivity of the cargo for being transported and is described by Ymax, the maximal activity, and EC50, the effective cargo concentration. An easily accessible cargo reaches high Ymax at low EC50. The transport efficiency is defined as a composition of both parameters according to Et = Ymax × (pEC50/ft), where pEC50 is the negative logarithm of EC50.
Extended Data Fig. 3 Transport activity. a, Transport activity, Y, in EYPC⊃HPTS/DPX vesicles as a function of cluster concentration at constant cargo concentration (WR7, 20 µM). b, Transport activity, Y, for B12Br12^2− (40 µM) in EYPC⊃HPTS/DPX vesicles as a function of the concentration of different cargo types; red lines correspond to the resulting fit with the Hill equation. Source data

[2] = U-tube transport experiment across a bulk chloroform layer; settings: trans: 2 mM HPTS, pH 7.4
Description: U-tube transport experiments, across a bulk chloroform layer, unambiguously confirmed that the brominated cluster served as a non-covalent carrier across a hydrophobic bulk barrier (Extended Data Fig. 2a, b). To quantitatively characterize the transport efficiency of the new cluster carriers, the normalized fluorescence responses in the vesicle experiments (Fig. 2b) were plotted against cluster concentration to produce dose–response curves (Fig. 2c and Extended Data Fig. 3a). […] This activity rivals the pyrenebutyrate (1) gold standard in the field (Ea ≈ 5)[18], which we used throughout as a control.
The U-tubes were home-made, similarly to those of Rebek and co-workers[52] and Matile and co-workers[19], and consisted of a small beaker with a central glass barrier separating the two aqueous phases, namely cis ([…]) and trans (receiving phase), but enabling the placement of an interfacing chloroform layer below the cis and trans phases. A 3 ml portion of CHCl3 was located in the U-tube and 1 ml of the cis and trans phases were added. The organic phase was stirred at 700 r.p.m. at room temperature. Aliquots (20 μl) from the aqueous trans phase were taken at different times, diluted to 450 μl with buffer (10 mM Tris, 107 mM NaCl, pH 7.4) and measured by fluorescence. […]

In the case of B12Br12^2−, the Ea activator efficiency ([1]; Ea = Ymax × (pEC50/fa), fa = 20.6, WR7 (20 μM) cargo, 10% error (SD)) is reported as 6.1, the “Y Conventional” value ([1]; [B12Br12] 1.00E-04 M) is reported as 0.7375 and the “Y Reverse” value ([1]; [B12Br12] 1.00E-04 M) is reported as 0.7289. The “Y Conventional” value ([1]; [B12Br12] 1.00E-05 M) was 0.08156, the “Y Reverse” value ([1]; [B12Br12] 1.00E-05 M) was 0.07644 and the “Y Conventional” value ([1]; [B12Br12] 1.00E-08 M) was 0.00214. For the same substance, the “Y Reverse” value ([1]; [B12Br12] 1.00E-08 M) was 9.09E-04, the “Y Conventional” value ([1]; [B12Br12] 1.20E-04 M) was 0.8093 and the “Y Reverse” value ([1]; [B12Br12] 1.20E-04 M) was 0.8173. The “Y Conventional” value ([1]; [B12Br12] 1.50E-04 M) was 0.8756, the “Y Conventional” value ([1]; [B12Br12] 2.00E-05 M) was 0.1885 and the “Y Reverse” value ([1]; [B12Br12] 2.00E-05 M) was 0.1615. For the same substance, the “Y Conventional” value ([1]; [B12Br12] 2.50E-04 M) was 0.8813, the “Y Reverse” value ([1]; [B12Br12] 2.50E-04 M) was 0.8905 and the “Y Conventional” value ([1]; [B12Br12] 3.00E-05 M) was 0.3307. The “Y Reverse” value ([1]; [B12Br12] 3.00E-05 M) was 0.3469, the “Y Conventional” value ([1]; [B12Br12] 4.00E-05 M) was 0.4335 and the “Y Conventional” value ([1]; [B12Br12] 5.00E-06 M) was 0.03975. The “Y Conventional” value ([1]; [B12Br12] 6.00E-05 M) was 0.5294, the “Y Reverse” value ([1]; [B12Br12] 6.00E-05 M) was 0.5266 and the “Y Conventional” value ([1]; [B12Br12] 8.00E-05 M) was 0.6371. For the same substance, the “Ymax (%) maximal activity, carrier activity” value ([1]; carrier concentration varied, WR7 (20 μM) as common cargo, EYPC⊃HPTS/DPX vesicles, pH 7.4, Hill analysis, 10% error (SD) unless stated, n.a. = no detectable activity, d.l. = dye leakage, no determination possible) was 95 ± 5%, the “Ymax (%) maximal activity, carrier activity” value ([1]; carrier concentration varied, WR7 (20 μM) as common cargo, EYPC⊃HPTS/DPX vesicles, pH 7.4, Hill analysis, 10% error (SD) unless stated, n.a. = no detectable activity, d.l. = dye leakage, no determination possible, listed as brominated cluster) was 95% and the EC50 ([1]; read-out: EC50 (μM) effective carrier concentration to reach 50% of Ymax, carrier concentration varied, WR7 (20 μM) as common cargo, EYPC⊃HPTS/DPX vesicles, pH 7.4, Hill analysis, 10% error (SD) unless stated, n.a. = no detectable activity, d.l. = dye leakage, no determination possible) was 48 µM. For the same substance, the “Transport of DPX across chloroform, without peptide cargo” value ([2]; cis: 40 μM cluster and 20 mM DPX) was “faster and more efficient transport of DPX” and the “Transport of DPX across chloroform, with peptide cargo” value ([2]; cis: 40 μM cluster, 20 μM WR7, 20 mM DPX, 10 mM Tris, 107 mM NaCl, HPTS quenching) was “the fastest and most efficient transport of DPX”.
